Test system: TKI-resistant patients with chronic phase (CP) or accelerated phase (AP) CML
Experiment: Phase I study, safety / treatment related adverse events (Example 1)
Source text: The eligible patients received treatments until disease progression or intolerable toxicities. The primary efficacy endpoint in the CML AP and CP patients, was complete hematological response (CHR) and major cytogenetic response (MCyR) respectively, MCyR includes partial cytogenetic response (PCyR) and complete cytogenetic response (CCyR). Blood samples were collected at various time points on Day 1-2 and Day 27-28 during cycle 1 for PK analyses.
• 3 to 6 subjects in each dose group (traditional 3+3 dose increasing method) • Up to 15 subjects in the MTD dose group (safety and PK characteristics) • Dose extension studies: • Up to 60 subjects (CP/CML-AP) • Extended dose selection is based on initial safety and efficacy Study Endpoints Primary Endpoint

[1] = Example 1, Table 1, 70 patients
[2] = Example 1, treatment related AE, all patients

## Cc1ccc(C(=O)Nc2ccc(CN3CCN(C)CC3)c(C(F)(F)F)c2)cc1C#Cc1cnc2[nH]ncc2c1 [compound of formula (I-A), 3-(2-(1H-pyrazolo[3,4-b]pyridin-5-yl)ethynyl)-4-methyl-N-(4-((4-methylpiperazin-1-yl)methyl)-3-(trifluoromethyl)phenyl)-benzamide]
[1]
  TRAE ALT increased, Any grade: 15 (21%) n (%)
  TRAE ALT increased, Grade 3-4: 0 n (%)
  TRAE AST increased, Any grade: 17 (24%) n (%)
  TRAE AST increased, Grade 3-4: 0 n (%)
  TRAE Anaemia, Any grade: 6 (8.6%) n (%)
  TRAE Anaemia, Grade 3-4: 5 (7.1%) n (%)
  TRAE CPK increased, Any grade: 18 (26%) n (%)
  TRAE CPK increased, Grade 3-4: 1 (1.4%) n (%)
  TRAE Creatinine increased, Any grade: 4 (5.7%) n (%)
  TRAE Creatinine increased, Grade 3-4: 0 n (%)
  TRAE GGT increased, Any grade: 10 (14%) n (%)
  TRAE GGT increased, Grade 3-4: 0 n (%)
  TRAE Hyperbilirubinemia, Any grade: 20 (29%) n (%)
  TRAE Hyperbilirubinemia, Grade 3-4: 0 n (%)
  TRAE Hyperglycaemia, Any grade: 5 (7.1%) n (%)
  TRAE Hyperglycaemia, Grade 3-4: 0 n (%)
  TRAE Hypertriglyceridaemia, Any grade: 36 (51%) n (%)
  TRAE Hypertriglyceridaemia, Grade 3-4: 2 (2.9%) n (%)
  TRAE Hypocalcaemia, Any grade: 25 (36%) n (%)
  TRAE Hypocalcaemia, Grade 3-4: 0 n (%)
  TRAE Hypokalaemia, Any grade: 12 (17%) n (%)
  TRAE Hypokalaemia, Grade 3-4: 0 n (%)
  TRAE Hyponatraemia, Any grade: 5 (7.1%) n (%)
  TRAE Hyponatraemia, Grade 3-4: 0 n (%)
  TRAE Leucocytopenia, Any grade: 12 (17%) n (%)
  TRAE Leucocytopenia, Grade 3-4: 12 (17%) n (%)
  TRAE Myalgia, Any grade: 11 (16%) n (%)
  TRAE Myalgia, Grade 3-4: 0 n (%)
  TRAE Pyrexia, Any grade: 13 (19%) n (%)
  TRAE Pyrexia, Grade 3-4: 4 (5.7%) n (%)
  TRAE Rash, Any grade: 9 (13%) n (%)
  TRAE Rash, Grade 3-4: 0 n (%)
  TRAE Skin hyperpigmentation, Any grade: 17 (24%) n (%)
  TRAE Skin hyperpigmentation, Grade 3-4: 0 n (%)
  TRAE Skin mass, Any grade: 6 (8.6%) n (%)
  TRAE Skin mass, Grade 3-4: 0 n (%)
  TRAE Thrombocytopenia, Any grade: 35 (50%) n (%)
  TRAE Thrombocytopenia, Grade 3-4: 35 (50%) n (%)
  TRAEs Hematological, Any grade: 36 (51%) n (%)
  TRAEs Hematological, Grade 3-4: 36 (51%) n (%)
  TRAEs Non-hematological, Any grade: 67 (96%) n (%)
  TRAEs Non-hematological, Grade 3-4: 11 (16%) n (%)
  TRAEs Overall, Any grade: 67 (96%) n (%)
  TRAEs Overall, Grade 3-4: 44 (63%) n (%)
Example 1, 20 mg (n = 4)
  ALT increased leading to dose interruption/reduction: 0 n (%)
  AST increased leading to dose interruption/reduction: 0 n (%)
  Amylase increased leading to dose interruption/reduction: 1(25%) n (%)
  Anemia leading to dose interruption/reduction: 0 n (%)
  Atrial fibrillation leading to dose interruption/reduction: 0 n (%)
  Cardiomyopathy leading to dose interruption/reduction: 0 n (%)
  GGT increased leading to dose interruption/reduction: 0 n (%)
  Hyperkalemia leading to dose interruption/reduction: 0 n (%)
  Hypertriglyceridemia leading to dose interruption/reduction: 0 n (%)
  Hypocalcemia leading to dose interruption/reduction: 0 n (%)
  Lacunar infarction leading to dose interruption/reduction: 0 n (%)
  Lipase increased leading to dose interruption/reduction: 0 n (%)
  Thrombocytopenia leading to dose interruption/reduction: 1(25%) n (%)
Example 1, 30 mg (n = 37)
  ALT increased leading to dose interruption/reduction: 0 n (%)
  AST increased leading to dose interruption/reduction: 0 n (%)
  Amylase increased leading to dose interruption/reduction: 0 n (%)
  Anemia leading to dose interruption/reduction: 1 n
  Anemia leading to dose interruption/reduction, percent of cohort: (2.7%)
  Atrial fibrillation leading to dose interruption/reduction: 1 n
  Atrial fibrillation leading to dose interruption/reduction, percent of cohort: (2.7%)
  Cardiomyopathy leading to dose interruption/reduction: 0 n (%)
  GGT increased leading to dose interruption/reduction: 0 n (%)
  Hyperkalemia leading to dose interruption/reduction: 1 n
  Hyperkalemia leading to dose interruption/reduction, percent of cohort: (2.7%)
  Hypertriglyceridemia leading to dose interruption/reduction: 1 n
  Hypertriglyceridemia leading to dose interruption/reduction, percent of cohort: (2.7%)
  Hypocalcemia leading to dose interruption/reduction: 2 n
  Hypocalcemia leading to dose interruption/reduction, percent of cohort: (5.4%)
  Lacunar infarction leading to dose interruption/reduction: 0 n (%)
  Lipase increased leading to dose interruption/reduction: 0 n (%)
  Thrombocytopenia leading to dose interruption/reduction: 12 n
  Thrombocytopenia leading to dose interruption/reduction, percent of cohort: (32%)
Example 1, 40 mg (n = 37)
  ALT increased leading to dose interruption/reduction: 1 n
  ALT increased leading to dose interruption/reduction, percent of cohort: (2.7%)
  AST increased leading to dose interruption/reduction: 1 n
  AST increased leading to dose interruption/reduction, percent of cohort: (2.7%)
  Amylase increased leading to dose interruption/reduction: 0 n (%)
  Anemia leading to dose interruption/reduction: 0 n (%)
  Atrial fibrillation leading to dose interruption/reduction: 0 n (%)
  Cardiomyopathy leading to dose interruption/reduction: 0 n (%)
  GGT increased leading to dose interruption/reduction: 1 n
  GGT increased leading to dose interruption/reduction, percent of cohort: (2.7%)
  Hyperkalemia leading to dose interruption/reduction: 0 n (%)
  Hypertriglyceridemia leading to dose interruption/reduction: 0 n (%)
  Hypocalcemia leading to dose interruption/reduction: 0 n (%)
  Lacunar infarction leading to dose interruption/reduction: 0 n (%)
  Lipase increased leading to dose interruption/reduction: 1 n
  Lipase increased leading to dose interruption/reduction, percent of cohort: (2.7%)
  Thrombocytopenia leading to dose interruption/reduction: 11 n
  Thrombocytopenia leading to dose interruption/reduction, percent of cohort: (30%)
Example 1, 45 mg (n = 3)
  ALT increased leading to dose interruption/reduction: 0 n (%)
  AST increased leading to dose interruption/reduction: 0 n (%)
  Amylase increased leading to dose interruption/reduction: 0 n (%)
  Anemia leading to dose interruption/reduction: 0 n (%)
  Atrial fibrillation leading to dose interruption/reduction: 0 n (%)
  Cardiomyopathy leading to dose interruption/reduction: 0 n (%)
  GGT increased leading to dose interruption/reduction: 0 n (%)
  Hyperkalemia leading to dose interruption/reduction: 0 n (%)
  Hypertriglyceridemia leading to dose interruption/reduction: 0 n (%)
  Hypocalcemia leading to dose interruption/reduction: 0 n (%)
  Lacunar infarction leading to dose interruption/reduction: 0 n (%)
  Lipase increased leading to dose interruption/reduction: 0 n (%)
  Thrombocytopenia leading to dose interruption/reduction: 2(67%) n (%)
Example 1, 50 mg (n = 24)
  ALT increased leading to dose interruption/reduction: 1 n
  ALT increased leading to dose interruption/reduction, percent of cohort: (4.2%)
  AST increased leading to dose interruption/reduction: 1 n
  AST increased leading to dose interruption/reduction, percent of cohort: (4.2%)
  Amylase increased leading to dose interruption/reduction: 0 n (%)
  Anemia leading to dose interruption/reduction: 0 n (%)
  Atrial fibrillation leading to dose interruption/reduction: 0 n (%)
  Cardiomyopathy leading to dose interruption/reduction: 0 n (%)
  GGT increased leading to dose interruption/reduction: 0 n (%)
  Hyperkalemia leading to dose interruption/reduction: 0 n (%)
  Hypertriglyceridemia leading to dose interruption/reduction: 0 n (%)
  Hypocalcemia leading to dose interruption/reduction: 1 n
  Hypocalcemia leading to dose interruption/reduction, percent of cohort: (4.2%)
  Lacunar infarction leading to dose interruption/reduction: 1 n
  Lacunar infarction leading to dose interruption/reduction, percent of cohort: (4.2%)
  Lipase increased leading to dose interruption/reduction: 1 n
  Lipase increased leading to dose interruption/reduction, percent of cohort: (4.2%)
  Thrombocytopenia leading to dose interruption/reduction: 8 n
  Thrombocytopenia leading to dose interruption/reduction, percent of cohort: (33%)
Example 1, 60 mg (n = 3)
  ALT increased leading to dose interruption/reduction: 0 n (%)
  AST increased leading to dose interruption/reduction: 0 n (%)
  Amylase increased leading to dose interruption/reduction: 0 n (%)
  Anemia leading to dose interruption/reduction: 0 n (%)
  Atrial fibrillation leading to dose interruption/reduction: 0 n (%)
  Cardiomyopathy leading to dose interruption/reduction: 1(33%) n (%)
  GGT increased leading to dose interruption/reduction: 0 n (%)
  Hyperkalemia leading to dose interruption/reduction: 0 n (%)
  Hypertriglyceridemia leading to dose interruption/reduction: 0 n (%)
  Hypocalcemia leading to dose interruption/reduction: 0 n (%)
  Lacunar infarction leading to dose interruption/reduction: 0 n (%)
  Lipase increased leading to dose interruption/reduction: 0 n (%)
  Thrombocytopenia leading to dose interruption/reduction: 2(67%) n (%)
Example 1, 60 mg cohort
  patients with dose-limiting toxicity (DLT): Two out of 3
Example 1, 70 patients
  patient withdrawal from the study because of TRAEs: no patient withdrawal
Example 1, QOD
  maximum toxic dosage (MTD): 50 mg
Example 1, median follow-up of 4.1 (1.0-21.2) cycles
  tolerability: well-tolerated in all dose cohorts other than the 60 mg cohort
[2]
  Alanine aminotransferase increased, Any grade: 29 (29%) n (%)
  Alanine aminotransferase increased, Grade 3-4: 2 (2.0%) n (%)
  Alanine aminotransferase increased, SAE: 0 n (%)
  Anaemia, Any grade: 10 (10%) n (%)
  Anaemia, Grade 3-4: 9 (9.0%) n (%)
  Anaemia, SAE: 2 (2.0%) n (%)
  Aspartate aminotransferase inceased, Any grade: 31 (31%) n (%)
  Aspartate aminotransferase inceased, Grade 3-4: 2 (2.0%) n (%)
  Aspartate aminotransferase inceased, SAE: 0 n (%)
  Blood bilirubin increased, Any grade: 28 (28%) n (%)
  Blood bilirubin increased, Grade 3-4: 1 (1.0%) n (%)
  Blood bilirubin increased, SAE: 0 n (%)
  Blood creatine phosphokinase increased, Any grade: 19 (19%) n (%)
  Blood creatine phosphokinase increased, Grade 3-4: 1 (1.0%) n (%)
  Blood creatine phosphokinase increased, SAE: 0 n (%)
  Hypertriglyceridaemia, Any grade: 51 (51%) n (%)
  Hypertriglyceridaemia, Grade 3-4: 4 (4.0%) n (%)
  Hypertriglyceridaemia, SAE: 0 n (%)
  Hypocalcaemia, Any grade: 31 (31%) n (%)
  Hypocalcaemia, Grade 3-4: 0 n (%)
  Hypocalcaemia, SAE: 0 n (%)
  Leukopenia, Any grade: 17 (17%) n (%)
  Leukopenia, Grade 3-4: 15 (15%) n (%)
  Neutropenia, Any grade: 2 (2.0%) n (%)
  Neutropenia, Grade 3-4: 0 n (%)
  Neutropenia, SAE: 0 n (%)
  Proteinuria, Any grade: 11 (11%) n (%)
  Proteinuria, Grade 3-4: 1 (1.0%) n (%)
  Proteinuria, SAE: 0 n (%)
  Skin hyperpigmentation, Any grade: 35 (35%) n (%)
  Skin hyperpigmentation, Grade 3-4: 0 n (%)
  Skin hyperpigmentation, SAE: 0 n (%)
  Thrombocytopenia, Any grade: 46 (46%) n (%)
  Thrombocytopenia, Grade 3-4: 45 (45%) n (%)
  Thrombocytopenia, SAE: 5 (5.0%) n (%)
  leukocytosis, Any grade: 9 (9.0%) n (%)
  leukocytosis, Grade 3-4: 8 (8.0%) n (%)
  leukocytosis, SAE: 0 n (%)
  leukopenia, SAE: 0 n (%)

From patent US12544370B2, “Methods for cancer therapy” (ASCENTAGE PHARMA (SUZHOU) CO., LTD., priority 2018, dated 2026)
